Literature values, collected in PMC12307812 (Nature Communications, 2025).

System: TMPRSS2
Set-up: method as in earlier work
Conditions: top 50 compounds by AUC, Figure 2 source data; cited from earlier work

| SMILES | max response (%) |
| --- | --- |
| Cc1ccc(S(=O)(=O)NC(=O)NN2CC3CCCC3C2)cc1 (centres unmarked) [NCGC00095107-09] | -9.733 |
| CCCCCCCCCCCCCCCC[n+]1ccccc1.[Br-] [NCGC00091023-06] | -21.1069 |
| CC(CCc1ccccc1)NC(C)C(O)c1ccc(O)cc1 (centres unmarked) [NCGC00015716-09] | -20.1145 |
| O=c1c(O)c(-c2ccc(O)c(O)c2)oc2cc(O)cc(O)c12 [NCGC00015870-27] | -35.5344 |
| Nc1ncnc2nc[nH]c12 [NCGC00094856-05] | -3.511 |
| O=C1N=C([O-])CN1/N=C/c1ccc(-c2ccc([N+](=O)[O-])cc2)o1.[Na+] [NCGC00024622-05] | -21.3359 |
| CC1(C)O[C@@H]2C[C@H]3[C@@H]4CCC5=CC(=O)C=C[C@]5(C)[C@@]4(F)[C@@H](O)C[C@]3(C)[C@]2(C(=O)CO)O1 [NCGC00023193-06] | -22.5573 |
| CC12CCC(CC1=O)C2(C)C (centres unmarked) [NCGC00090730-03] | -1.87 |
| N=C(N)c1ccc(OCCCCCOc2ccc(C(=N)N)cc2)cc1 [NCGC00179034-07] | -64.313 |
| CCCCc1cc2ccccc2c(OCCN(C)C)n1 [NCGC00016618-04] | -11.3359 |
| CC(C)N(CCC(C(N)=O)(c1ccccc1)c1ccccn1)C(C)C (centres unmarked) [NCGC00015358-18] | -7.9771 |
| O=C(O)CCNC(=O)c1ccc(N=Nc2ccc(O)c(C(=O)O)c2)cc1 [NCGC00164634-02] | -22.1756 |
| C=CC[C@@H]1/C=C(\C)C[C@H](C)C[C@H](OC)[C@H]2O[C@@](O)(C(=O)C(=O)N3CCCC[C@H]3C(=O)O[C@H](/C(C)=C/[C@@H]3CC[C@@H](O)[C@H](OC)C3)[C@H](C)[C@@H](O)CC1=O)[C@H](C)C[C@@H]2OC [NCGC00163470-27] | -28.9699 |
| C#C[C@]1(O)CC[C@H]2[C@@H]3CCC4=CC(=O)CCC4=C3C=C[C@@]21CC [NCGC00167457-02] | -24.7304 |
| CC[C@H](C)[C@H]1O[C@]2(C=C[C@@H]1C)C[C@@H]1C[C@@H](C/C=C(\C)[C@@H](O[C@H]3C[C@H](OC)[C@@H](O[C@H]4C[C@H](OC)[C@@H](O)[C@H](C)O4)[C@H](C)O3)[C@@H](C)/C=C/C=C3\CO[C@@H]4[C@H](O)C(C)=C[C@@H](C(=O)O1)[C@]34O)O2 [NCGC00168290-05] | -26.1435 |
| Cl.NCCNC(=O)c1ccc(Cl)cn1 [NCGC00167737-02] | -9.8855 |
| CN(C(=O)C(Cl)Cl)c1ccc(OC(=O)c2ccco2)cc1 [NCGC00016637-10] | -56.9847 |
| CCOC(=O)COc1ccc2c(=O)cc(-c3ccccc3)oc2c1 [NCGC00182622-03] | -10.6731 |
| C=CCN1CC[C@]23CCCC[C@H]2[C@H]1Cc1ccc(O)cc13 [NCGC00162247-06] | -23.7786 |
| CN(C/C=C/c1ccccc1)Cc1cccc2ccccc12.Cl [NCGC00179332-03] | -15.3589 |
| CCOC(=O)Cn1cccc1-c1nc(-c2ccc(OC)cc2)c(-c2ccc(OC)cc2)s1 [NCGC00182996-01] | -15.3817 |
| N=C(N)c1ccc(/C=C/c2ccc(C(=N)N)cc2O)cc1 [NCGC00166289-02] | -82.5214 |
| CCOC(=O)c1ccc(OC(=O)CCCCCN=C(N)N)cc1.CS(=O)(=O)O [NCGC00025297-04] | -83.626 |
